Test results from patent US20230071840A1, “HETEROCYCLIC GLP-1 AGONISTS” (Gasherbrum Bio, Inc., priority 2020, published 2023).

These compounds were tested against GLP-1 Receptor (Homo sapiens, UniProt P43220) (assay: GLP-1R agonist cAMP stimulation assay (HEK293/GLP1R/CRE-LUC cells, cAMP dynamic 2 kit)). Settings: HEK293/CRE-Luc cell line stably expressing the GLP-1 Receptor; 30 min incubation at 37° C.; read-out: GLP1R cAMP Stimulation DR: EC50.
Assay type: cell-based
Procedure: Activation of GLP-1 receptor is known to stimulate cyclic AMP (cAMP) production in cells which indicates primary coupling to the Gas subunit of the G protein heterotrimeric complex.
To optimize functional activity directed toward Gas coupling, a HEK293/CRE-Luc cell line developed by HDB stably expressing the GLP-1 Receptor was used. […] Seal the plate and incubate at 37° C. with 5% CO2 for 30 min.
After incubation the cAMP assay signal was generated using cAMP dynamic 2 Kit (Cisbio). 5 μL cAMP-d2 working solution was added to each well, followed with 5 μL Anti-cAMP antibody-cryptate working solution added to each well using ThermoFisher Multidrop Combi. Incubate at room temperature for 1 hour protected from light.
% Activity=[…]×(mean RLU of test sample−mean RLU of vehicle control)/(mean RLU of MAX control−mean RLU of vehicle control))

GLP-1 Receptor, sequence (P43220 24-463, species assumed): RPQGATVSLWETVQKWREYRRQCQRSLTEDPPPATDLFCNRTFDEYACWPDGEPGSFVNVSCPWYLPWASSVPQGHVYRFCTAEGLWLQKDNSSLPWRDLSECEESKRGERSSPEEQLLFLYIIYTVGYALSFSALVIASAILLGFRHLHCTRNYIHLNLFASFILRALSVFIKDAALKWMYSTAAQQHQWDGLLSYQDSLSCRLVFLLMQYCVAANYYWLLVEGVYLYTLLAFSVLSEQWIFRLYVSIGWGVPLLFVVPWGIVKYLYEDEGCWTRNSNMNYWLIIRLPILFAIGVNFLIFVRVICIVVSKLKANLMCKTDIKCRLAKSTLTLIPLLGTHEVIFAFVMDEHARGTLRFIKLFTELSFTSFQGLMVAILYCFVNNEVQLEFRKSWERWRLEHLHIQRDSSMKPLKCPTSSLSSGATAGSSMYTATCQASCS

Row | EC50 [pM] | Structure (SMILES)
1 | 950 | Clc1ccc(Cc2nccc(OC3CCN(Cc4nc5ccc(-c6nnn[nH]6)nc5n4C[C@@H]4CCO4)CC3)n2)cc1 [Compound 199a, (S)-2-((4-((2-(4-chlorobenzyl)pyrimidin-4-yl)oxy)piperidin-1-yl)methyl)-3-(oxetan-2-ylmethyl)-5-(1H-tetrazol-5-yl)-3H-imidazo[4,5-b]pyridine]
2 | 85000 | NC(=O)c1ccc2nc(CN3CCC(Oc4ccnc(Cc5ccc(Cl)cc5)n4)CC3)n(C[C@@H]3CCO3)c2n1 [Compound 200a, (S)-2-((4-((2-(4-chlorobenzyl)pyrimidin-4-yl)oxy)piperidin-1-yl)methyl)-3-(oxetan-2-ylmethyl)-3H-imidazo[4,5-b]pyridine-5-carboxamide]
3 | 690 | O=C(O)c1ccc2nc(Cc3ccc(Oc4nc(Cc5ccc(Cl)cc5)ncc4F)cc3)n(C[C@@H]3CCO3)c2n1 [Compound 189a, 2-{[4-({2-[(4-chlorophenyl)methyl]-5-fluoropyrimidin-4-yl}oxy)phenyl]methyl}-3-{[(2S)-oxetan-2-yl]methyl}-3H-imidazo[4,5-b]pyridine-5-carboxylic acid]
4 | 470 | O=C(O)c1ccc2nc(CN3CCC(n4ncc5ccc(Cc6ccc(Cl)cc6F)nc54)CC3)n(C[C@@H]3CCO3)c2n1 [Compound 185a, 2-[(4-{6-[(4-chloro-2-fluorophenyl)methyl]-1H-pyrazolo[3,4-b]pyridin-1-yl}piperidin-1-yl)methyl]-3-{[(2S)-oxetan-2-yl]methyl}-3H-imidazo[4,5-b]pyridine-5-carboxylic acid]
5 | 83 | O=C(O)c1ccc2nc(C[C@H]3CC[C@H](Oc4cccc(Cc5ccc(Cl)cc5)n4)CC3)n(C[C@@H]3CCO3)c2n1 [Compound 181a, 3-{[(2S)-oxetan-2-yl]methyl}-2-{[trans-4-({6-[(4-chlorophenyl)methyl]pyridin-2-yl}oxy)cyclohexyl]methyl}-3H-imidazo[4,5-b]pyridine-5-carboxylic acid]
6 | 42 | O=C(O)c1ccc2nc(C[C@H]3CC[C@H](Oc4ccnc(Cc5ccc(Cl)cc5)n4)CC3)n(C[C@@H]3CCO3)c2n1 [Compound 177a, 3-{[(2S)-oxetan-2-yl]methyl}-2-{[trans-4-({2-[(4-chlorophenyl)methyl]pyrimidin-4-yl}oxy)cyclohexyl]methyl}-3H-imidazo[4,5-b]pyridine-5-carboxylic acid]
7 | 230000 | O=C(O)c1ccc2nc(C[C@H]3CC[C@@H](Oc4ccnc(Cc5ccc(Cl)cc5F)n4)CC3)n(C[C@@H]3CCO3)c2n1 [Compound 175a, 3-{[(2S)-oxetan-2-yl]methyl}-2-{[cis-4-({2-[(4-chloro-2-fluorophenyl)methyl]pyrimidin-4-yl}oxy)cyclohexyl]methyl}-3H-imidazo[4,5-b]pyridine-5-carboxylic acid]

Continued, compound first:

Row | Structure (SMILES) | EC50 [pM]
8 | O=C(O)c1ccc2nc(CN3CCC(Oc4cccc(Cc5cccc(Cl)c5)n4)CC3)n(C[C@@H]3CCO3)c2n1 [Compound 125a, (S)-2-((4-((6-(3-chlorobenzyl)pyridin-2-yl)oxy)piperidin-1-yl)methyl)-3-(oxetan-2-ylmethyl)-3H-imidazo[4,5-b]pyridine-5-carboxylic acid] | 1400
9 | O=C(O)c1ccc2nc(CN3CCC(Oc4cccc(Cc5ccc(Cl)cc5)n4)CC3)n(C[C@@H]3CCO3)c2n1 [Compound 124a, (S)-2-((4-((6-(4-chlorobenzyl)pyridin-2-yl)oxy)piperidin-1-yl)methyl)-3-(oxetan-2-ylmethyl)-3H-imidazo[4,5-b]pyridine-5-carboxylic acid] | 43
10 | O=C(O)c1ccc2nc(CN3CCC(Oc4cncc(Cc5ccc(Cl)cc5)n4)CC3)n(C[C@@H]3CCO3)c2n1 [Compound 153a, 2-{[4-({6-[(4-chlorophenyl)methyl]pyrazin-2-yl}oxy)piperidin-1-yl]methyl}-3-{[(2S)-oxetan-2-yl]methyl}-3H-imidazo[4,5-b]pyridine-5-carboxylic acid] | 140
11 | O=C(O)c1ccc2nc(CN3CCC(c4cccc5nc(Cc6ccc(Cl)cc6F)oc45)CC3)n(C[C@@H]3CCO3)c2n1 [Compound 143a, (S)-2-((4-(2-(4-chloro-2-fluorobenzyl)benzo[d]oxazol-7-yl)piperidin-1-yl)methyl)-3-(oxetan-2-ylmethyl)-3H-imidazo[4,5-b]pyridine-5-carboxylic acid] | 530
12 | O=C(O)c1ccc2nc(CN3CCC(Oc4ccnc(Cc5ccc(Cl)cc5F)n4)C(F)(F)C3)n(C[C@@H]3CCO3)c2n1 (stereo partly drawn) [Compound 168a, 2-{[4-({2-[(4-chloro-2-fluorophenyl)methyl]pyrimidin-4-yl}oxy)-3,3-difluoropiperidin-1-yl]methyl}-3-{[(2S)-oxetan-2-yl]methyl}-3H-imidazo[4,5-b]pyridine-5-carboxylic acid] | 1200
13 | O=C(O)c1ccc2nc(CN3CCC(Oc4ccnc(Cc5ccc(Cl)cc5)n4)CC3)n(C[C@@H]3CCO3)c2n1 [Compound 152a, 2-{[4-({2-[(4-chlorophenyl)methyl]pyrimidin-4-yl}oxy)piperidin-1-yl]methyl}-3-{[(2S)-oxetan-2-yl]methyl}-3H-imidazo[4,5-b]pyridine-5-carboxylic acid] | 38
14 | O=C(O)c1ccc2nc(CN3CCC(Oc4cccc(Cn5ccc(Cl)cc5=O)n4)CC3)n(C[C@@H]3CCO3)c2n1 [Compound 149a, 2-{[4-({6-[(4-chloro-2-oxo-1,2-dihydropyridin-1-yl)methyl]pyridin-2-yl}oxy)piperidin-1-yl]methyl}-3-{[(2S)-oxetan-2-yl]methyl}-3H-imidazo[4,5-b]pyridine-5-carboxylic acid] | 5600
15 | O=C(O)c1ccc2nc(CN3CCC(Oc4cnn(Cc5ccc(Cl)cc5F)c4)CC3)n(C[C@@H]3CCO3)c2n1 [Compound 184a, 2-{[4-({1-[(4-chloro-2-fluorophenyl)methyl]-1H-pyrazol-4-yl}oxy)piperidin-1-yl]methyl}-3-{[(2S)-oxetan-2-yl]methyl}-3H-imidazo[4,5-b]pyridine-5-carboxylic acid] | 90000
16 | N#CC1(Cn2c(CN3CCC(Oc4ccnc(Cc5ccc(Cl)cc5F)n4)CC3)nc3ccc(C(=O)O)cc32)CC1 [Compound 162, 2-{[4-({2-[(4-chloro-2-fluorophenyl)methyl]pyrimidin-4-yl}oxy)piperidin-1-yl]methyl}-1-[(1-cyanocyclopropyl)methyl]-1H-1,3-benzodiazole-6-carboxylic acid] | 75
17 | O=C(O)c1ccc2nc(CN3CCC(Oc4ccc(=O)n(Cc5ccc(Cl)cc5F)n4)CC3)n(C[C@@H]3CCO3)c2n1 [Compound 144a, 2-{[4-({1-[(4-chloro-2-fluorophenyl)methyl]-6-oxo-1,6-dihydropyridazin-3-yl}oxy)piperidin-1-yl]methyl}-3-{[(2S)-oxetan-2-yl]methyl}-3H-imidazo[4,5-b]pyridine-5-carboxylic acid] | 4800
18 | O=C(O)c1ccc2nc(CN3CCC(Oc4ccn(Cc5ccc(Cl)cc5F)n4)CC3)n(C[C@@H]3CCO3)c2c1 [Compound 116a, 2-{[4-({1-[(4-chloro-2-fluorophenyl)methyl]-1H-pyrazol-3-yl}oxy)piperidin-1-yl]methyl}-1-{[(2S)-oxetan-2-yl]methyl}-1H-1,3-benzodiazole-6-carboxylic acid] | 2800
19 | O=C(O)c1ccc2nc(CN3CCC(Oc4cc(C(F)(F)F)cc(Cc5ccc(Cl)cc5)n4)CC3)n(C[C@@H]3CCO3)c2n1 [Compound 156a, 2-{[4-({6-[(4-chlorophenyl)methyl]-4-(trifluoromethyl)pyridin-2-yl}oxy)piperidin-1-yl]methyl}-3-{[(2S)-oxetan-2-yl]methyl}-3H-imidazo[4,5-b]pyridine-5-carboxylic acid] | 40000
20 | O=C(O)c1ccc2nc(CN3CCC(Oc4ccnc(Cc5ccc(Cl)cc5C(F)(F)F)n4)CC3)n(C[C@@H]3CCO3)c2n1 [Compound 166a, 2-({4-[(2-{[4-chloro-2-(trifluoromethyl)phenyl]methyl}pyrimidin-4-yl)oxy]piperidin-1-yl}methyl)-3-{[(2S)-oxetan-2-yl]methyl}-3H-imidazo[4,5-b]pyridine-5-carboxylic acid] | 1000
21 | O=C(O)c1ccc2nc(C[C@H]3CC[C@H](Oc4cccc(Cc5ccc(Cl)cc5F)n4)CC3)n(C[C@@H]3CCO3)c2n1 [Compound 174b, 3-{[(2S)-oxetan-2-yl]methyl}-2-{[trans-4-({6-[(4-chloro-2-fluorophenyl)methyl]pyridin-2-yl}oxy)cyclohexyl]methyl}-3H-imidazo[4,5-b]pyridine-5-carboxylic acid] | 140
22 | O=C(O)c1ccc2nc(CN3CCC(Oc4ccnc(Cc5ccc(Cl)cc5Cl)n4)CC3)n(C[C@@H]3CCO3)c2n1 [Compound 164a, 2-{[4-({2-[(2,4-dichlorophenyl)methyl]pyrimidin-4-yl}oxy)piperidin-1-yl]methyl}-3-{[(2S)-oxetan-2-yl]methyl}-3H-imidazo[4,5-b]pyridine-5-carboxylic acid] | 110
23 | O=C(O)c1ccc2nc(CC3CCN(C(=O)c4cccc(Cc5ccc(Cl)cc5F)n4)CC3)n(C[C@@H]3CCO3)c2n1 [Compound 106a, (S)-2-((1-(6-(4-Chloro-2-fluorobenzyl)picolinoyl)piperidin-4-yl)methyl)-3-(oxetan-2-ylmethyl)-3H-imidazo[4,5-b]pyridine-5-carboxylic acid] | 463000

Same assay, conditions: HEK293/CRE-Luc cell line stably expressing the GLP-1 Receptor; 30 min incubation at 37° C.; read-out: GLP1R cAMP Stimulation DR: pEC50 (converted)

Row | EC50 [pM] | Structure (SMILES)
24 | 1000 | Clc1ccc(Cc2nccc(OC3CCN(Cc4nc5ccc(-c6nnn[nH]6)nc5n4C[C@@H]4CCO4)CC3)n2)cc1 [Compound 199a, (S)-2-((4-((2-(4-chlorobenzyl)pyrimidin-4-yl)oxy)piperidin-1-yl)methyl)-3-(oxetan-2-ylmethyl)-5-(1H-tetrazol-5-yl)-3H-imidazo[4,5-b]pyridine]
25 | 158 | O=C(O)c1ccc2nc(CN3CCC(Oc4cncc(Cc5ccc(Cl)cc5)n4)CC3)n(C[C@@H]3CCO3)c2n1 [Compound 153a, 2-{[4-({6-[(4-chlorophenyl)methyl]pyrazin-2-yl}oxy)piperidin-1-yl]methyl}-3-{[(2S)-oxetan-2-yl]methyl}-3H-imidazo[4,5-b]pyridine-5-carboxylic acid]
26 | 100 | O=C(O)c1ccc2nc(CN3CCC(Oc4ccnc(Cc5ccc(Cl)cc5Cl)n4)CC3)n(C[C@@H]3CCO3)c2n1 [Compound 164a, 2-{[4-({2-[(2,4-dichlorophenyl)methyl]pyrimidin-4-yl}oxy)piperidin-1-yl]methyl}-3-{[(2S)-oxetan-2-yl]methyl}-3H-imidazo[4,5-b]pyridine-5-carboxylic acid]

Row | Structure (SMILES) | EC50 [pM]
27 | O=C(O)c1ccc2nc(CN3CCC(Oc4cnn(Cc5ccc(Cl)cc5F)c4)CC3)n(C[C@@H]3CCO3)c2n1 [Compound 184a, 2-{[4-({1-[(4-chloro-2-fluorophenyl)methyl]-1H-pyrazol-4-yl}oxy)piperidin-1-yl]methyl}-3-{[(2S)-oxetan-2-yl]methyl}-3H-imidazo[4,5-b]pyridine-5-carboxylic acid] | 100000
